In patent US11208412B2 (DAEGU-GYEONGBUK MEDICAL INNOVATION FOUNDATION, priority 2017, dated 2021):

Legend:
Test in all cases: Kinase selectivity, DiscoverX scanMAX Kinase assay panel (% control)
Assay type in all cases: binding
[1] = biological target: T1, kinases of the scanMAX Kinase assay panel (Homo sapiens, UniProt P00533, G719C); details: EGFR(G719C); 1 uM
T1 construct: purchased DiscoverX Co. (contract measurement) scanMAX Kinase assay panel
How it was run: (§1)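 Compounds tested at 1 uM against the scanMAX kinase panel. Signal expressed as % control = (compound − positive control)/(DMSO negative control − positive control) × 100, where positive control = 0% and DMSO = 100%; below 35% counted as activity on that kinase.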

[2] = biological target: T2, kinases of the scanMAX Kinase assay panel (Homo sapiens, UniProt P07949, M918T); details: kinase RET(M918T); 1 uM in DMSO
T2 construct: purchased DiscoverX Co. (contract measurement) scanMAX Kinase assay panel
T2 sequence (P07949 29-1114 M918T): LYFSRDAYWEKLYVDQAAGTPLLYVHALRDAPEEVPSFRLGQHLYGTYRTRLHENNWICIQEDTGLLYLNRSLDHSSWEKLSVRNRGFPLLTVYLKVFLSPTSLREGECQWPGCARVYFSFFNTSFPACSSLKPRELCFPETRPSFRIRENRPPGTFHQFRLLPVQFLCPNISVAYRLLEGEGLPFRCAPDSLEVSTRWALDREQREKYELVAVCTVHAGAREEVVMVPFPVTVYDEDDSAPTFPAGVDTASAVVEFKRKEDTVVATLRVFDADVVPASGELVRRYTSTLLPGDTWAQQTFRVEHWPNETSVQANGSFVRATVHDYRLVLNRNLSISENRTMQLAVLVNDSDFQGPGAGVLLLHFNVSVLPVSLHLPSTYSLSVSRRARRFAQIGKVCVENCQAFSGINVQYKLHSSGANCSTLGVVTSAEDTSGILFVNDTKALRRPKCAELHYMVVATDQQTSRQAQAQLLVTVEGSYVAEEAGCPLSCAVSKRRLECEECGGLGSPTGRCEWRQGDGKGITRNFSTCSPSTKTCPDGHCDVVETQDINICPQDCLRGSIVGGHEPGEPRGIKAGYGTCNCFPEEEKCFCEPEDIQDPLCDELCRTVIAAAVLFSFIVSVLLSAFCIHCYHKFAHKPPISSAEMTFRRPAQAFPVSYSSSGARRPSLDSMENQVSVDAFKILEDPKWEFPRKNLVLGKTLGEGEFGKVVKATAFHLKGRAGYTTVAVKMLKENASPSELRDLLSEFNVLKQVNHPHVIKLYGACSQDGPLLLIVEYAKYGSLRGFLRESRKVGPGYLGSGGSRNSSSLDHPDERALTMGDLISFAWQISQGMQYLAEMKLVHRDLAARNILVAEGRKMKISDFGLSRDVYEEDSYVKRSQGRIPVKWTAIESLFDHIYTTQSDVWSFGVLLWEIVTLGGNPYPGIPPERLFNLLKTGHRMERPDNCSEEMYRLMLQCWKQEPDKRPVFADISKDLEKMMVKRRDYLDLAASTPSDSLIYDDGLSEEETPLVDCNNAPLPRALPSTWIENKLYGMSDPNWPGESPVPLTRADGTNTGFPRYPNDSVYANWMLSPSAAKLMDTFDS
How it was run: as §1

[3] = biological target: T3, kinases of the scanMAX Kinase assay panel (Homo sapiens, UniProt P08922); details: kinase ROS1; 1 uM in DMSO
T3 construct: purchased DiscoverX Co. (contract measurement) scanMAX Kinase assay panel
How it was run: as §1

[4] = biological target: T4, kinases of the scanMAX Kinase assay panel (Homo sapiens, UniProt P09769); details: FGR; 1 uM
T4 construct: purchased DiscoverX Co. (contract measurement) scanMAX Kinase assay panel
T4 sequence (P09769 whole entry): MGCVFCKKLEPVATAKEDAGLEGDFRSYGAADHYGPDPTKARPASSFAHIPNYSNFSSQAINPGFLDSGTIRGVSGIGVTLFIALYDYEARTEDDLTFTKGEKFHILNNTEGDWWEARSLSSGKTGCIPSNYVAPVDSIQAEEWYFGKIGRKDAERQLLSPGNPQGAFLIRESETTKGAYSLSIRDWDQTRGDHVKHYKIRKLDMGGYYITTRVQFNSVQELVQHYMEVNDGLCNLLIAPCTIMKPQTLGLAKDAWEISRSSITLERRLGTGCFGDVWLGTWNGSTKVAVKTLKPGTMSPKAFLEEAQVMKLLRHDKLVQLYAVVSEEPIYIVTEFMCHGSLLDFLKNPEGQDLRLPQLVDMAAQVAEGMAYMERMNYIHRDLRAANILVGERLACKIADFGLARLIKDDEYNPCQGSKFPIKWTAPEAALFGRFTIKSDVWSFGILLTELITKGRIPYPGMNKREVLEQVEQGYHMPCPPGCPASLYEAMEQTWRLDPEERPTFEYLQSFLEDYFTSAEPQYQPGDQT
How it was run: as §1

[5] = biological target: T5, kinases of the scanMAX Kinase assay panel (Homo sapiens, UniProt P37023); details: ACVRL1; 1 uM
T5 construct: purchased DiscoverX Co. (contract measurement) scanMAX Kinase assay panel
T5 sequence (P37023 22-503): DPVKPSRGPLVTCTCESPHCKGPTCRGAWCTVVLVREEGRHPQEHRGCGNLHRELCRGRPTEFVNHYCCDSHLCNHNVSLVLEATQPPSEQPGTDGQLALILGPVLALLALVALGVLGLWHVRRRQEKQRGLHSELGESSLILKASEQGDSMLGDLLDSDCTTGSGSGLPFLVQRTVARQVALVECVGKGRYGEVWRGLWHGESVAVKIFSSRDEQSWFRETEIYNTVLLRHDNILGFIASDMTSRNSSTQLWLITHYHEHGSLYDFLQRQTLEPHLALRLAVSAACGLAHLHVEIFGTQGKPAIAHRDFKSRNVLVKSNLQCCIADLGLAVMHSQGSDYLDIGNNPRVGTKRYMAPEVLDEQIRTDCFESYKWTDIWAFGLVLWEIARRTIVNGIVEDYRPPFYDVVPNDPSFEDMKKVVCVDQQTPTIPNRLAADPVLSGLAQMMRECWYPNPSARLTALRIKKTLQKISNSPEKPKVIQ
How it was run: as §1

[6] = biological target: T6, kinases of the scanMAX Kinase assay panel (Homo sapiens, UniProt Q00526); details: CDK3; 1 uM
T6 construct: purchased DiscoverX Co. (contract measurement) scanMAX Kinase assay panel
T6 sequence (Q00526 whole entry): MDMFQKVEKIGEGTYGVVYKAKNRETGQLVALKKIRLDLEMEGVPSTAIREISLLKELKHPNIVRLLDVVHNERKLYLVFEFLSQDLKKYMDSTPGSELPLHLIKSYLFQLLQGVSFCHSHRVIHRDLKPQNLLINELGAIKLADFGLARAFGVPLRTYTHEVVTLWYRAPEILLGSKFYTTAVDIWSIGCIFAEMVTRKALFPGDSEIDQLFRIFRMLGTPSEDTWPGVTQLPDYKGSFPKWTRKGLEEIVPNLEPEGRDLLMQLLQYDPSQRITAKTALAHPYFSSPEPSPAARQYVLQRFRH
How it was run: as §1

[7] = biological target: T7, kinases of the scanMAX Kinase assay panel (Homo sapiens, UniProt Q13164); details: ERK5; 1 uM
T7 construct: purchased DiscoverX Co. (contract measurement) scanMAX Kinase assay panel
T7 sequence (Q13164 whole entry): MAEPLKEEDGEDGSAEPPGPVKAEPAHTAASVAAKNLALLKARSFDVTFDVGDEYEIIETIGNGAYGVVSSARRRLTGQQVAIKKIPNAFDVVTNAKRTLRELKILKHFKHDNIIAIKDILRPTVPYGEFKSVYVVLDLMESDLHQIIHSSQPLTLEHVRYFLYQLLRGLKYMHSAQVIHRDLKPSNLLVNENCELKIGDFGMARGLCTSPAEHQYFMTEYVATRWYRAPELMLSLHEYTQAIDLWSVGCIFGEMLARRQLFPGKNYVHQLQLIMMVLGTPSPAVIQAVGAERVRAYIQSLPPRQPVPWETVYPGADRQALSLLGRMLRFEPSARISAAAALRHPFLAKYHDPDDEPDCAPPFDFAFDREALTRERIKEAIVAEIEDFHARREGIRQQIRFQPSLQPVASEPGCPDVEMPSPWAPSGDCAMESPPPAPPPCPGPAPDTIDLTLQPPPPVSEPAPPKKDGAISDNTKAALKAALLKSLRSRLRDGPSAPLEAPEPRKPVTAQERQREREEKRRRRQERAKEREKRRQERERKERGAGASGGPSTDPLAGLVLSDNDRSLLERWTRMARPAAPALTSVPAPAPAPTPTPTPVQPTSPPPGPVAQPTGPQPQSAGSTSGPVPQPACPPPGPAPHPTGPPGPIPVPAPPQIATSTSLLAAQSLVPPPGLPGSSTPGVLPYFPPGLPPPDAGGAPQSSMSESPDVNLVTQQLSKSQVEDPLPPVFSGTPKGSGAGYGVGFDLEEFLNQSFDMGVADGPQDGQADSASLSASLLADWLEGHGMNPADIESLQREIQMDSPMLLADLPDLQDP
How it was run: as §1

[8] = biological target: T8, kinases of the scanMAX Kinase assay panel (Homo sapiens, UniProt Q8TDC3); details: BRSK1; 1 uM
T8 construct: purchased DiscoverX Co. (contract measurement) scanMAX Kinase assay panel
T8 sequence (Q8TDC3 1-778): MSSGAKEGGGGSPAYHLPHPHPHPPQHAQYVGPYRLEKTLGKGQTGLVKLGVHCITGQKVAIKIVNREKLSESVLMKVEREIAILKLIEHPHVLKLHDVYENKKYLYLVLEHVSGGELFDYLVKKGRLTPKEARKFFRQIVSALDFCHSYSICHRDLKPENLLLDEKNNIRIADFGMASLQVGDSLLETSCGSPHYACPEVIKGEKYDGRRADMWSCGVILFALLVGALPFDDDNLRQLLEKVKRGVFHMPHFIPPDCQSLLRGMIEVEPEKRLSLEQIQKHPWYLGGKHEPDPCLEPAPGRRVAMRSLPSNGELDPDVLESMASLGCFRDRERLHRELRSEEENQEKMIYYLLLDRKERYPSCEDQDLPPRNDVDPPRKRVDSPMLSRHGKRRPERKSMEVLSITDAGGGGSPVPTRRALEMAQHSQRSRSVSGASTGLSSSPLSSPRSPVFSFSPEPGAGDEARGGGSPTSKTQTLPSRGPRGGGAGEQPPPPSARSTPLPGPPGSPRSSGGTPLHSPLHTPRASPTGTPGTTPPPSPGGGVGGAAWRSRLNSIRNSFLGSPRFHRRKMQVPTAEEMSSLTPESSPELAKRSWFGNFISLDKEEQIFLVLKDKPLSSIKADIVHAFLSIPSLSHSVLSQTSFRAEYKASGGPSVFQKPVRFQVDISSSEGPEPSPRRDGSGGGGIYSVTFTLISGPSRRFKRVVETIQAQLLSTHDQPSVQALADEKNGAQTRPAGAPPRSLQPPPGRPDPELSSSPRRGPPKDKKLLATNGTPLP
How it was run: as §1

[9] = biological target: T9, kinases of the scanMAX Kinase assay panel (Homo sapiens, UniProt Q99759); details: MAP3K3; 1 uM
T9 construct: purchased DiscoverX Co. (contract measurement) scanMAX Kinase assay panel
T9 sequence (Q99759 1-626): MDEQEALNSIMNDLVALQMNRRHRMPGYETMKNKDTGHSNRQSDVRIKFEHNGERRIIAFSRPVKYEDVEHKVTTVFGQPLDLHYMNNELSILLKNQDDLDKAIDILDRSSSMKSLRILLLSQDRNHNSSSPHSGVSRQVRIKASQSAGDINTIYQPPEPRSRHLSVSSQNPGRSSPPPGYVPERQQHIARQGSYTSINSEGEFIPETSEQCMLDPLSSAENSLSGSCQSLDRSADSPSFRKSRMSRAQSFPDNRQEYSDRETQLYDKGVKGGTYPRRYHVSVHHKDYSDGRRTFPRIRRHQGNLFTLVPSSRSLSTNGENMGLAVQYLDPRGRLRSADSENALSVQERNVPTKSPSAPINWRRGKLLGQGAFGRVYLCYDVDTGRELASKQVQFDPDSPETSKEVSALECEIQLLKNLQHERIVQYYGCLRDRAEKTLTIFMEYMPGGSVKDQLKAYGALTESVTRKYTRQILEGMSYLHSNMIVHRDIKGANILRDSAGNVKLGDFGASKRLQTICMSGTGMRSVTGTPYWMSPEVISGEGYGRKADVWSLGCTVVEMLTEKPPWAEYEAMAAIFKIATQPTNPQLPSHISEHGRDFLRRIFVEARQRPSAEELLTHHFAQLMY
How it was run: as §1

T1 sequence (P00533 25-1210 G719C): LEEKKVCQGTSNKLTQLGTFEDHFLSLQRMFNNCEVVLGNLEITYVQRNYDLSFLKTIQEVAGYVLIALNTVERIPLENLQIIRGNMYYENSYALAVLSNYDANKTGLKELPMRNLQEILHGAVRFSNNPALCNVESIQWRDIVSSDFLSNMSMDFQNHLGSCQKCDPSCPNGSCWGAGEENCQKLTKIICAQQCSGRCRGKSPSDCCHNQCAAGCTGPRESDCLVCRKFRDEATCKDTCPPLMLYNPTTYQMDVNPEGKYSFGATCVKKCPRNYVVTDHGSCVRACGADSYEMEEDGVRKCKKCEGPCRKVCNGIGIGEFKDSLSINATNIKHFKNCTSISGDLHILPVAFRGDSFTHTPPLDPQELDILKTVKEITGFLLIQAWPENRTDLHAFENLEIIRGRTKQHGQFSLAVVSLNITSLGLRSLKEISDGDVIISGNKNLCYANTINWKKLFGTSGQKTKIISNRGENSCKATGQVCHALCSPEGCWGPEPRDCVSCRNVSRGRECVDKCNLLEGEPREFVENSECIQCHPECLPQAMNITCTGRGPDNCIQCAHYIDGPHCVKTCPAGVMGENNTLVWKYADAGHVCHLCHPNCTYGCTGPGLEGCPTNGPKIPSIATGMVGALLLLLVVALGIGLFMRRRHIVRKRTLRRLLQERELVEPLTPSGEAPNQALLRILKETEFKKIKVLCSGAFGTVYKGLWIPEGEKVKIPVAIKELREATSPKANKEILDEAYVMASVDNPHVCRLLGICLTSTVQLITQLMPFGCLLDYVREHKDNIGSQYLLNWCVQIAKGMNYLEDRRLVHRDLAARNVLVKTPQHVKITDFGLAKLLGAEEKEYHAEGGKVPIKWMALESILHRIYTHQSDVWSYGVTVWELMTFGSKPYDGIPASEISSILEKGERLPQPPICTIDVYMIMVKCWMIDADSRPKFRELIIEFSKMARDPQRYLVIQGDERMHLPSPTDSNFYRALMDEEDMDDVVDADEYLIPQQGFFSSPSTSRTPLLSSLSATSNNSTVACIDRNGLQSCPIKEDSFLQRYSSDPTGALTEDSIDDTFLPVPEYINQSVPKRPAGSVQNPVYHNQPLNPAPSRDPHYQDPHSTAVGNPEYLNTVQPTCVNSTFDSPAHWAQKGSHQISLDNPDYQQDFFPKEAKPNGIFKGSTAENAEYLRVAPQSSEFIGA

SMILES	remaining binding at 1 µM [1] [%]	remaining binding at 1 µM [2] [%]	remaining binding at 1 µM [3] [%]	remaining binding at 1 µM [4] [%]	remaining binding at 1 µM [5] [%]	remaining binding at 1 µM [6] [%]	remaining binding at 1 µM [7] [%]	remaining binding at 1 µM [8] [%]	remaining binding at 1 µM [9] [%]
CNc1nc(Nc2ccc(C(=O)N3CCOCC3)cc2OC)nc2[nH]cc(C#N)c12 [Example 1, 2-((2-methoxy-4-(morpholine-4-carbonyl)phenyl)amino)-4-(methylamino)-7H-pyrrolo[2,3-d]pyrimidine-5-carbonitrile]	82	94	56	94	88	100	72	97	98
CC1(Nc2nc(Nc3cnn([C@H]4CCN(C5COC5)C[C@@H]4F)c3Cl)nc3[nH]cc(C#N)c23)CC1 [Example 52, 2-((5-chloro-1-((3S,4S)-3-fluoro-1-(oxetane-3-yl)piperidine-4-yl)-1H-pyrazole-4-yl)amino)((1-methylcyclopropyl)amino)-7H-pyrrolo[2,3-d]pyrimidine-5-carbonitrile]	71	0	23	10	100	76	13	96	0.1
CCNc1nc(Nc2ccc(C(=O)N3CCC(N4CCOCC4)CC3)cc2OC)nc2[nH]cc(C(F)(F)F)c12 [Example 104, (4-((4-(ethylamino)-5-(trifluoromethyl)-7H-pyrrolo[2,3-d]pyrimidine-2-yl)amino)-3-methoxyphenyl)(4-morpholinopiperidine-1-yl)methanone]	96	96	22	100	97	93	18	100	87
